One may read the melting point as the temperature of the solid-liquid transition.

For the molecule `COCCn1c(C(=O)O)cc2ccccc21`, the melting point was in the range of 139 to 141 °C.
In turn, `CCc1noc2ncc(C(=O)O)cc12` came in with a melting point of 193 to 195 °C.
In turn, `Fc1cc(F)c2cccnc2c1` gave a melting point of 76 to 78 °C.
On to `Cc1cc(S)nc(C(C)C)n1`, for which the melting point lay within 160 to 164 °C.
As for `O=Cc1cnn(Cc2ccccc2)c1`, the melting point was 43 to 45 °C.
Molecule `Nc1cc(-c2ccccc2)nc(N)n1` showed a melting point of 153 to 155 °C.
As to `O=C1CSC(=Cc2nc3ccccc3s2)N1`, the melting point lay within 186 to 188 °C.
As for `O=C(O)c1cccc(NC(=O)c2ccco2)c1`, the melting point is 224 to 226 °C.
As for `COc1ccc(Cl)cc1C(C)=O`, the figure is 33 to 35 °C; as for `CN1CCC/C1=N/S(=O)(=O)c1ccc(N)cc1`, 172 to 174 °C.
With `O=C(O)C1CCS(=O)(=O)CC1`, the melting point lay within 184 to 186 °C.
For `O=C(NCc1cccs1)c1ccc(-n2ccnc2S)cc1`, the melting point fell in the range of 195 to 197 °C.
As for `COCCOc1ccc(F)cc1[N+](=O)[O-]`, the figure is 54 to 56 °C; as for `CC(C)N(C(C)C)S(=O)(=O)c1ccc(NN)nc1`, 159 to 161 °C.
`O=Cc1c(-c2ccccc2)n(-c2ccccc2)c2ccccc12` came in with a melting point of 246 to 248 °C.
In turn, `CCOC(=O)c1sc2nc(Cc3ccccn3)[nH]c(=O)c2c1C` returned a melting point of 231 to 233 °C.
Molecule `CN(C)S(=O)(=O)c1cccc(N=C=S)c1` registered a melting point of 47 to 49 °C.
As for `C#CCn1nc(C)c(C)c1C`, the figure is 74 to 76 °C; as for `CSc1ccc(CC(=O)O)cc1`, 97 to 98 °C; as for `CC(C)N1C2CCC1CC(C(=O)O)C2` (stereo unspecified), 223 to 225 °C.
Turning to `Cc1nc(O)nc(C)c1CC(=O)O`, the melting point was 271 to 273 °C.
For `CC(C)(C)c1nc2cc(N)ccc2o1`, the melting point was 111 to 113 °C.
As for `O=C(CC1CCCCC1)NCCC1CNc2ccccc21` (stereo unspecified), the figure is 124 to 126 °C; as for `CC(C)c1nc(C(=O)O)cs1`, 56 to 58 °C.
`CN(C)C(=O)c1ccccc1O` showed a melting point of 161 to 163 °C.
As for `O=C(O)c1ccc(S(=O)(=O)CC(F)(F)F)cc1`, the melting point was 239 to 241 °C.
In the case of `COc1cc(N)c(C(=O)O)c(Br)c1`, the melting point lay within 134 to 136 °C.
`CC1(C)OC(=O)C(C(=O)C2CCCC2)C(=O)O1` yielded a melting point of 63 to 65 °C.
`COc1ccc(NS(=O)(=O)c2ccc(N)cc2)c(OC)c1` had a melting point of 119 to 121 °C.
`O=C(O)C1CC1c1c(F)cccc1Cl` (stereo unspecified) registered a melting point of 109 to 111 °C.
`CCc1c(-c2ccc(Br)cc2)n[nH]c1N` came in with a melting point of 94 to 96 °C.
As for `O=C(O)C1CCCN(S(=O)(=O)c2cccs2)C1` (stereo unspecified), the melting point was in the range of 136 to 138 °C.
In the case of `Cn1nc(Br)c2c(=O)[nH]cnc21`, the melting point lay in the range of 296 to 298 °C.
Regarding `O=C(O)c1nn(-c2ccccc2F)cc1Br`, the melting point is 235 to 237 °C.
Molecule `COc1ccc(CCC(=O)NN)cc1` displayed a melting point of 129 to 131 °C.
Molecule `O=C(Nc1cccs1)OCC(F)(F)F` had a melting point of 58 to 60 °C.
`Cc1ccc(C)n1-c1cn[nH]c1` had a melting point of 155 to 157 °C.
Molecule `CCC(C(=O)Nc1cccc(C(N)=S)c1)c1ccccc1` (stereo unspecified) returned a melting point of 148 to 150 °C.
`NS(=O)(=O)c1cc(C(F)(F)F)ccc1Cl` had a melting point of 154 to 156 °C.
As for `C#Cc1cnc2ccccc2n1`, the figure is 99 to 101 °C; as for `Sc1ncc(-c2ccc(Cl)cc2)n1-c1ccccc1`, 283 to 285 °C.
`O=[N+]([O-])c1cccc(-c2cnc(CCCl)o2)c1` returned a melting point of 73 to 75 °C.
`CCOC(=O)c1nc2c(s1)NCCCC2` showed a melting point of 144 to 146 °C.
As to `O=C(O)c1ccc(=O)n(-c2ccccc2)n1`, the melting point was 208 to 210 °C.
`Cn1c(NN)nc2ccccc2c1=O` yielded a melting point of 150 to 152 °C.
Next, `Nc1ccc(-n2ccnc2)cc1C(F)(F)F`: 109 to 111 °C; `O=C(O)c1c2c(nc3ccccc13)CCN(Cc1ccccc1)C2`: 224 to 226 °C; `Cc1ccc(C(N)CC(=O)O)o1` (stereo unspecified): 199 to 201 °C.
As for `COc1ccc(Oc2ccc(S(N)(=O)=O)cc2)cc1`, the melting point was 169 to 171 °C.
For the molecule `COc1ccc2c(O)ccnc2c1`, the melting point lay within 213 to 215 °C.
Next, `Cc1c(C(=O)O)ccc2cnc(C3CC3)n12`: 204 to 206 °C.
`COC(=O)c1n[nH]c(C)c1Br` gave a melting point of 148 to 150 °C.
`Oc1ccc2cncnc2c1` came in with a melting point of 216 to 218 °C.
Regarding `COc1ccc(S(=O)(=O)Nc2ncc(Br)s2)cc1`, the melting point lay within 132 to 134 °C.
As to `COc1ccc(C2C(CO)CCC(=O)N2C)cc1` (stereo unspecified), the melting point fell in the range of 119 to 121 °C.
As for `CC(O)(CN)c1ccc(F)cc1` (stereo unspecified), the figure is 69 to 71 °C; as for `CNCc1cc(Br)ccc1[N+](=O)[O-]`, 29 to 31 °C; as for `CNCc1c(C)nn(-c2ccccc2C)c1C`, 41 to 43 °C.
As for `CC(C(=O)O)N1CCSCC1` (stereo unspecified), the melting point was in the range of 199 to 201 °C.
Take `CC(C)Oc1ccc(Cl)cc1C(=O)O`: the melting point fell in the range of 83 to 85 °C.
Next, `C#CCN1CCC(NC2CCOCC2)CC1`: 74 to 76 °C.
As for `ON=Cc1cccc(OCc2ccncc2)c1`, the figure is 177 to 179 °C.
For `NCCN1C(=O)C2C3C=CC(C3)C2C1=O` (stereo unspecified), the melting point lay in the range of 69 to 71 °C.
As for `COc1ccc2c(c1)CNC(c1ccccc1)C2` (stereo unspecified), the figure is 90 to 92 °C; as for `Sc1nncn1-c1cccc(Cl)c1`, 187 to 189 °C; as for `C=CCNS(=O)(=O)c1cc(C(=O)O)ccc1F`, 164 to 166 °C.
The molecule `NS(=O)(=O)c1ccc2c(c1)CC(=O)N2` showed a melting point of 252 to 254 °C.
Molecule `CCN(CC)S(=O)(=O)c1ccc(CC#N)nc1` displayed a melting point of 72 to 74 °C.
`COC(=O)C1CCc2cn[nH]c2C1` (stereo unspecified) displayed a melting point of 64 to 66 °C.
On to `Fc1ccc(NCc2ccccn2)c(F)c1`, for which the melting point lay in the range of 52 to 54 °C.
`Nc1ccc(OCCO)cc1C(F)(F)F` gave a melting point of 73 to 75 °C.
As for `N#Cc1ccccc1Oc1ccc(C(=O)O)cc1Cl`, the figure is 174 to 176 °C; as for `O=S1(=O)CCC(NC2CCNCC2)C1` (stereo unspecified), 84 to 86 °C; as for `O=C1CCC(C(=O)O)CC1`, 62 to 64 °C.
As to `CS(=O)Cc1c(C(=O)O)sc2ccccc12` (stereo unspecified), the melting point was 183 to 185 °C.
As for `NS(=O)(=O)c1cccc(F)c1`, the figure is 129 to 131 °C.
`CCc1cc(Cl)nc(-c2ccncc2)n1`: the melting point lay within 99 to 101 °C.
Consider `ClCc1nc(-c2cccc(Cl)c2)no1`, for which the melting point was 38 to 42 °C.
`Cc1oncc1C(=O)Nc1ccc(N)c(C(F)(F)F)c1` yielded a melting point of 196 to 198 °C.
With `CCOC(=O)c1c(-c2ccccc2)csc1NC(=O)CCCl`, the melting point was 64 to 66 °C.
As for `O=C(Nc1ccc(Cl)cn1)Nc1ccccc1C(=O)O`, the figure is 245 to 247 °C.
Molecule `O=S(=O)(NCc1ccccc1)c1cccs1` displayed a melting point of 145 to 150 °C.
Turning to `NS(=O)(=O)N1CCc2ccccc21`, the melting point was 149 to 151 °C.
With `O=C(O)CCNS(=O)(=O)c1ccc(Br)cc1`, the melting point was in the range of 161 to 163 °C.
As for `Clc1ncnc2ccc(Br)cc12`, the figure is 166 to 168 °C.
The molecule `c1cc2c(s1)CCNC2C1CC1` (stereo unspecified) returned a melting point of 44 to 46 °C.
The molecule `Clc1cn2ccccc2n1` displayed a melting point of 72 to 74 °C.
As for `CC(CO)NCc1ccccc1Cl` (stereo unspecified), the figure is 54 to 56 °C; as for `NC(=S)CCN1CCOC1=O`, 140 to 142 °C.
Regarding `COc1cc(C(=O)O)ccc1OCc1ccccc1Cl`, the melting point was in the range of 143 to 145 °C.
Take `CCN(CC)C(=O)c1ccc(O)cc1`: the melting point fell in the range of 120 to 122 °C.
On to `O=C(O)c1cnc2sc(Cc3ccccc3)cn2c1=O`, for which the melting point was 197 to 199 °C.
In the case of `NNc1nc(-c2ccccc2)no1`, the melting point was 177 to 179 °C.
On to `NC(=O)c1ccc(S(=O)(=O)Cl)cc1`, for which the melting point was 188 to 190 °C.
Next, `Cc1c(S(=O)(=O)Cl)cnn1-c1ccccn1`: 53 to 55 °C.
In the case of `CS(=O)(=O)c1ccc(N)cc1Cl`, the melting point lay within 193 to 195 °C.
`O=C(Nc1sc2ccccc2c1Cl)OCC(F)(F)F` yielded a melting point of 95 to 97 °C.
Next, `O=C1CCNc2ccc(F)cc21`: 49 to 51 °C; `Cc1nc2cc(Cl)ccc2c(=O)n1N`: 202 to 204 °C.
`O=C(O)C1CSC(c2cccc(Br)c2)N1` (stereo unspecified) came in with a melting point of 165 to 167 °C.
For `O=c1[nH]c(CCl)nc2scc(-c3ccccc3Cl)c12`, the melting point was in the range of 167 to 169 °C.
As for `O=C(O)c1cc(S(=O)(=O)N2CCOCC2)ccc1F`, the melting point lay in the range of 201 to 203 °C.
`O=S(=O)(Cl)N1CCCC2CCCCC21` (stereo unspecified) displayed a melting point of 34 to 36 °C.
As for `c1cn2c(n1)CN(C1CCNCC1)CC2`, the melting point lay within 63 to 65 °C.
With `Cc1cc(C(=O)CCl)c(C)n1CCC(C)C`, the melting point is 55 to 57 °C.
With `Cc1nc(N)sc1Cc1cccc(F)c1`, the melting point lay in the range of 82 to 84 °C.
As for `Nc1nc2ccccc2n1CCCn1ccnc1`, the melting point lay in the range of 178 to 180 °C.
Take `O=c1[nH]nc(-c2cccs2)o1`: the melting point is 116 to 118 °C.
With `FC(F)Sc1nc2ccccc2[nH]1`, the melting point is < 17 °C.
Next, `CNc1cc(-c2cccc(OC)c2)[nH]n1`: 109 to 111 °C; `O=S(=O)(Cl)C1=Cc2ccccc2CC1`: 59 to 61 °C; `OCC(NCc1ccccc1)C1CC1` (stereo unspecified): 56 to 58 °C.
In turn, `Cc1ccc(C)c(-c2nc(N)sc2C)c1` came in with a melting point of 92 to 94 °C.
In turn, `COc1ccc(Cc2nnc(N)s2)cc1` returned a melting point of 174 to 176 °C.
Next, `N#CCCc1c(Cl)cccc1Cl`: 40 to 42 °C; `Nc1nc2nc(-c3ccccc3)cc(C(F)(F)F)c2s1`: 234 to 236 °C.
Next, `COc1cccc(C2(C(=O)O)CCCC2)c1`: 125 to 127 °C; `Cc1ccccc1-n1nc(C(C)(C)C)cc1N`: 112 to 114 °C; `Nn1cnc2c(cnn2-c2ccccc2)c1=O`: 233 to 235 °C.
As to `Cc1ccc(C)c(SCc2nc3sc(C(=O)O)c(C)c3c(=O)[nH]2)c1`, the melting point was 295 to 297 °C.
Take `Cc1sc(N=CN(C)C)c(C#N)c1C`: the melting point was in the range of 117 to 119 °C.

These data come from a melting point compilation (Tetko et al.).
